Test results reported in publication PMC12005787, “Synthetic Lethality of SHP2 and XIAP Suppresses Proliferation and Metastasis in KRAS‐mutant Nonsmall Cell Lung Cancer” (Advanced Science, 2025).
Like-named read-outs stand apart in the source and are kept apart here.

Assays:
[1] = target: T1, SHP2 in NCI‐H2122 cells (Homo sapiens, UniProt Q06124); test: Intracellular SHP2 activity (IP and DiFMUP); type: cell-based
T1 construct: endogenous in cells; host or cells: NCI-H2122
Method: To test intracellular SHP2 activity, the extract of NCI‐H2122 cells was precleared with protein A/G agarose beads and incubated with anti‐SHP2 antibody overnight at 4 °C, followed by further incubation with protein A/G agarose beads for 2 h at 4 °C. The Iimmunoprecipitates were suspended in sample buffer and detected in 96‐well black polystyrene plates using the fluorescent substrate DiFMUP under the same conditions as described above.

[2] = target: T2, His‐ΔSHP2 (Homo sapiens, UniProt Q06124); test: Reversibility of embelin-SHP2 binding (dialysis); type: biochemical
T2 construct: His‐ΔSHP2, encompassing the peptide from amino acids 205–593 retaining PTP activity; His; made in house; host or cells: E. coli
T2 sequence (Q06124 205-593): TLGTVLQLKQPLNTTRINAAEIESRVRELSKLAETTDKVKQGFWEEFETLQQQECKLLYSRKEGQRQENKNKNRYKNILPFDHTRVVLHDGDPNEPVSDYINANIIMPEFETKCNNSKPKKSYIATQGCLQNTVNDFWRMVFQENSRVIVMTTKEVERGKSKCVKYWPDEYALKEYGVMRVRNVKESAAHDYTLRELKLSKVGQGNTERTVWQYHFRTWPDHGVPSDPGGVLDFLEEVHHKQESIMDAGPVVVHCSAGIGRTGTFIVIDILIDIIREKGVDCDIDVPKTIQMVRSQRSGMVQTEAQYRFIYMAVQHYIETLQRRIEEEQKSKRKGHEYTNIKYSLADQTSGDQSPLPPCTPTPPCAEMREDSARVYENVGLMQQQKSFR
Method: To test whether embelin and SHP2 were reversibly bound, the purified His‐ΔSHP2 fusion protein was dialyzed overnight in dialysis buffer (10 mM HEPES, 0.5 M NaCl, 1 mM TCEP, and 10% glycerol, pH 7.5), and the protein activity was detected by DiFMUP. After incubating embelin with dialyzed protein at 37 °C for 30 min, the mixed solution was dialyzed overnight or ultrafiltered, with DMSO as a control, and protein activity was detected by DiFMUP to determine the mode of protein‐compound binding.

[3] = test system: HCC827 cells; test: Cell viability assay (CCK-8); type: cell-based; details: Homo sapiens; HCC827, RAS-wild type, 24 h
Method: (§1) supplies are listed in Supplementary Table S5. The relevant reagents for protein extraction from Escherichia coli are listed in Supplementary Table S6. Inhibitory effects of embelin on KRAS-mutant and wild-type cells are listed in Supplementary Table S7.
(§2) For the adherent cell viability assay, cells in the logarithmic growth phase were seeded in 96-well culture plates at a density of 5×103 well-1 and incubated overnight. Diluted compounds or DMSO were added, or specific treatments were incubated at 37 °C and 5% CO2 for 24 h or 48 h. Cell viability was determined using CCK-8 or CellLightTM Cell Viability Assay Kit, according to the manufacturer's protocol. The luminescence signals of the treated samples were normalized to those of the DMSO group. […]

[4] = test system: SW620 cells; test: Cell viability assay (CCK-8); type: cell-based; details: Homo sapiens, SW-620
Method: as §1, §2

[5] = test system: ACHN cells; test: Cell viability assay (CCK-8); type: cell-based; details: Homo sapiens
Method: (§3) supplies are listed in Supplementary Table S5. […]
(§4) KRAS-mutant and wild-type cells are listed in Supplementary Table S7.
as §2

[6] = test system: Lewis/Luc1 cells; test: Cell viability assay (CCK-8); type: cell-based
Method: as §3, §4, §2

[7] = test system: HeLa cells; test: Cell viability assay (CCK-8); type: cell-based; details: Homo sapiens
Method: as §3, §4, §2

[8] = test system: HCT15 cells; test: Cell viability assay (CCK-8); type: cell-based; details: Homo sapiens, HCT-15
Method: as §3, §4, §2

[9] = test system: NCI-H1299 cells; test: Cell viability assay (CCK-8); type: cell-based; details: Homo sapiens
Method: as §3, §4, §2

[10] = test system: A549 cells; test: Cell viability assay (CCK-8); type: cell-based; details: Homo sapiens
Method: as §3, §4, §2

[11] = test system: NCI-H2122 cells; test: Cell viability assay (CCK-8); type: cell-based; details: Homo sapiens
Method: as §3, §4, §2

[12] = test system: MDA-MB-231 cells; test: Cell viability assay (CCK-8); type: cell-based; details: Homo sapiens
Method: as §3, §4, §2

[13] = test system: RAS wild‐type and mutant cells; test: Colony formation assay; type: cell-based
Method: as §3
Colony formation experiment
Cells in the logarithmic growth phase were digested thoroughly into a single dispersed state and inoculated into six-well plates at a density of 100 well-1. Subsequently, different concentrations of the drugs were added for 14 d, consecutively, and the solution was changed every 2 d. Next, the cells were fixed with 4% formaldehyde, stained with 0.1% crystal violet, and the number of clones was counted using an inverted microscope. […]

effect on intracellular SHP2 activity [1]: significantly inhibited
mode of binding to SHP2 (dialysis) [2]: noncovalent
IC50 [3]: 4.95 ± 0.28 µM
IC50 ([4]; SW620, 48 h, read-out: IC50 at 48 h): 5.06 ± 0.45 µM
IC50 ([4]; SW620, KRAS G12V, 24 h, read-out: IC50 at 24 h): 18.6 ± 0.4 µM
IC50 ([5]; 48 h, read-out: IC50 at 48 h): 10.3 ± 0.7 µM
IC50 ([5]; HRAS, 24 h, read-out: IC50 at 24 h): 27.4 ± 0.3 µM
IC50 ([7]; 48 h, read-out: IC50 at 48 h): 13.4 ± 0.6 µM
IC50 ([7]; RAS-wild type, 24 h, read-out: IC50 at 24 h): 16.5 ± 0.2 µM
IC50 ([8]; HCT15, 48 h, read-out: IC50 at 48 h): 9.95 ± 0.38 µM
IC50 ([8]; HCT15, KRAS G13D, 24 h, read-out: IC50 at 24 h): 12.8 ± 0.43 µM
IC50 ([9]; NCI-H1299, 48 h, read-out: IC50 at 48 h): 13.1 ± 0.6 µM
IC50 ([9]; NCI-H1299, NRAS, 24 h, read-out: IC50 at 24 h): 19.6 ± 1 µM
IC50 ([10]; A549, 48 h, read-out: IC50 at 48 h): 6.5 ± 0.9 µM
IC50 ([10]; A549, KRAS G12S, 24 h, read-out: IC50 at 24 h): 7.9 µM
IC50 ([11]; NCI-H2122, 48 h, read-out: IC50 at 48 h): 4.03 ± 0.1 µM
IC50 ([11]; NCI-H2122, KRAS G12C, 24 h, read-out: IC50 at 24 h): 4.9 ± 0.1 µM
IC50 ([12]; MDA-MB-231, 48 h, read-out: IC50 at 48 h): 11.5 ± 0.7 µM
IC50 ([12]; MDA-MB-231, KRAS G13D, 24 h, read-out: IC50 at 24 h): 13.6 ± 0.2 µM
SMILES: CCCCCCCCCCCC1=C(O)C(=O)C=C(O)C1=O [Embelin]
IC50 ([6]; Lewis/Luc1, 48 h, read-out: IC50 at 48 h): 18.2 ± 0.9 µM
IC50 ([6]; Lewis/Luc1, RAS-wild type, 24 h, read-out: IC50 at 24 h): 20.6 ± 0.6 µM
colony formation [13]: cytotoxic effects on both RAS
